According to PMC5218480 (PLoS ONE, 2017):

System: MV-4-11 cells
Assay: Gene expression microarray analysis (Affymetrix PrimeView) and GSEA
Assay type: cell-based, human
Parameters: RFU PODN (11730768_x_at) / Fold change /veh PODN (11730768_x_at) / RFU LINC00158 (11744669_a_at) / Fold change /veh LINC00158 (11744669_a_at) / RFU DUSP10 (11751237_a_at) / Fold change /veh DUSP10 (11751237_a_at) / RFU ID3 (11757404_x_at) / Fold change /veh ID3 (11757404_x_at) / RFU PLEKHG5 (11737974_s_at) / Fold change /veh PLEKHG5 (11737974_s_at) / RFU LRRC4B (11730491_at) / Fold change /veh LRRC4B (11730491_at) / RFU GIMAP4 (11747438_a_at) / Fold change /veh GIMAP4 (11747438_a_at) / RFU KRT8 (11758183_x_at) / Fold change /veh KRT8 (11758183_x_at) / RFU CNN1 (11734310_a_at) / Fold change /veh CNN1 (11734310_a_at) / RFU VPS37D (11726825_at) / Fold change /veh VPS37D (11726825_at) / RFU C10orf10 (11716522_x_at) / Fold change /veh C10orf10 (11716522_x_at) / RFU KIR2DL2 /// KIR2DL4 /// KIR2DL5A /// KIR2DL5B /// KIR2DS1 /// KIR2DS2 /// KIR2DS3 /// KIR2DS4 /// KIR3DL3 /// KIR3DL3 /// KIR3DS1 (11738374_at) / Fold change /veh KIR2DL2 /// KIR2DL4 /// KIR2DL5A /// KIR2DL5B /// KIR2DS1 /// KIR2DS2 /// KIR2DS3 /// KIR2DS4 /// KIR3DL3 /// KIR3DL3 /// KIR3DS1 (11738374_at) / RFU C1QL1 (11718748_at) / Fold change /veh C1QL1 (11718748_at) / RFU TMPRSS4 (11747572_a_at) / Fold change /veh TMPRSS4 (11747572_a_at) / RFU HAMP (11756126_x_at) / Fold change /veh HAMP (11756126_x_at) / RFU RNFT2 (11725882_a_at) / Fold change /veh RNFT2 (11725882_a_at) / RFU NR4A2 (11747474_a_at) / Fold change /veh NR4A2 (11747474_a_at) / RFU ABCC12 (11746883_a_at) / Fold change /veh ABCC12 (11746883_a_at) / RFU TMEM136 (11760407_x_at) / Fold change /veh TMEM136 (11760407_x_at) / RFU CLDN22 /// WWC2 (11732394_at) / Fold change /veh CLDN22 /// WWC2 (11732394_at) / RFU HLA-DPB1 (11760878_x_at) / Fold change /veh HLA-DPB1 (11760878_x_at) / RFU SPINT1 (11716480_a_at) / Fold change /veh SPINT1 (11716480_a_at) / RFU GAP43 (11754022_s_at) / Fold change /veh GAP43 (11754022_s_at) / RFU A4GNT (11735810_at) / Fold change /veh A4GNT (11735810_at) / RFU PRB3 (11715151_x_at) / Fold change /veh PRB3 (11715151_x_at) / RFU TUBB4B (11761932_at) / Fold change /veh TUBB4B (11761932_at) / RFU CAPN14 (11732068_a_at) / Fold change /veh CAPN14 (11732068_a_at) / RFU TMCC2 (11721928_a_at) / Fold change /veh TMCC2 (11721928_a_at) / RFU IRGQ (11745062_a_at) / Fold change /veh IRGQ (11745062_a_at) / RFU FAM174B (11720279_a_at) / Fold change /veh FAM174B (11720279_a_at) / RFU TMPRSS4 (11748680_a_at) / Fold change /veh TMPRSS4 (11748680_a_at) / RFU FAM212B (11763350_a_at) / Fold change /veh FAM212B (11763350_a_at) / RFU PLEKHG5 (11743358_a_at) / Fold change /veh PLEKHG5 (11743358_a_at) / RFU ZSCAN30 (11745921_a_at) / Fold change /veh ZSCAN30 (11745921_a_at) / RFU CMKLR1 (11741424_a_at) / Fold change /veh CMKLR1 (11741424_a_at) / RFU LOC101060620 /// MAPK8IP1 (11723275_at) / Fold change /veh LOC101060620 /// MAPK8IP1 (11723275_at) / RFU SPTSSB (11747773_x_at) / Fold change /veh SPTSSB (11747773_x_at) / RFU PRSS12 (11739890_at) / Fold change /veh PRSS12 (11739890_at) / RFU BIN1 (11741810_x_at) / Fold change /veh BIN1 (11741810_x_at) / RFU WNT11 (11732464_a_at) / Fold change /veh WNT11 (11732464_a_at) / RFU C10orf10 (11716521_a_at) / Fold change /veh C10orf10 (11716521_a_at) / RFU C5orf56 (11738089_at) / Fold change /veh C5orf56 (11738089_at) / RFU CYB561 (11721691_x_at) / Fold change /veh CYB561 (11721691_x_at) / RFU ANKRD19P (11752326_a_at) / Fold change /veh ANKRD19P (11752326_a_at) / RFU OR2T12 /// OR2T33 /// OR2T8 (11738714_s_at) / Fold change /veh OR2T12 /// OR2T33 /// OR2T8 (11738714_s_at) / RFU VCAN (11748164_a_at) / Fold change /veh VCAN (11748164_a_at) / RFU JSRP1 (11732532_at) / Fold change /veh JSRP1 (11732532_at) / RFU KRTAP10-11 (11738290_x_at) / Fold change /veh KRTAP10-11 (11738290_x_at) / RFU MYO3A (11730013_a_at) / Fold change /veh MYO3A (11730013_a_at) / RFU EBF3 (11725865_a_at) / Fold change /veh EBF3 (11725865_a_at) / RFU CAMK2N1 (11719241_x_at) / Fold change /veh CAMK2N1 (11719241_x_at) / RFU C5orf56 (11738088_a_at) / Fold change /veh C5orf56 (11738088_a_at) / RFU OLFML3 (11715873_a_at) / Fold change /veh OLFML3 (11715873_a_at) / RFU LOC100653217 /// NTM (11731650_a_at) / Fold change /veh LOC100653217 /// NTM (11731650_a_at) / RFU MAPK11 (11762145_a_at) / Fold change /veh MAPK11 (11762145_a_at) / RFU FIZ1 (11724087_x_at) / Fold change /veh FIZ1 (11724087_x_at) / RFU OASL (11726364_x_at) / Fold change /veh OASL (11726364_x_at) / RFU SOX15 (11748057_x_at) / Fold change /veh SOX15 (11748057_x_at) / RFU CD79A (11719716_a_at) / Fold change /veh CD79A (11719716_a_at) / RFU HIST1H1D (11736915_at) / Fold change /veh HIST1H1D (11736915_at) / RFU CASKIN2 (11723855_a_at) / Fold change /veh CASKIN2 (11723855_a_at) / RFU LOC730098 (11760151_x_at) / Fold change /veh LOC730098 (11760151_x_at) / RFU OR4N2 (11742367_at) / Fold change /veh OR4N2 (11742367_at) / RFU PRRT2 (11749266_a_at) / Fold change /veh PRRT2 (11749266_a_at) / RFU SNX32 (11753110_a_at) / Fold change /veh SNX32 (11753110_a_at) / RFU CDHR5 (11726645_a_at) / Fold change /veh CDHR5 (11726645_a_at) / RFU RCAN1 (11760418_a_at) / Fold change /veh RCAN1 (11760418_a_at) / RFU FAM167A (11723789_a_at) / Fold change /veh FAM167A (11723789_a_at) / RFU FAM26E (11764081_at) / Fold change /veh FAM26E (11764081_at) / RFU ISYNA1 (11749810_s_at) / Fold change /veh ISYNA1 (11749810_s_at) / RFU ACY1 (11761880_at) / Fold change /veh ACY1 (11761880_at) / RFU 11764098_at / Fold change /veh 11764098_at / RFU SAMD14 (11745864_x_at) / Fold change /veh SAMD14 (11745864_x_at) / RFU NPB (11741838_a_at) / Fold change /veh NPB (11741838_a_at) / RFU TMPRSS6 (11731388_a_at) / Fold change /veh TMPRSS6 (11731388_a_at) / RFU KRTAP10-2 (11738614_at) / Fold change /veh KRTAP10-2 (11738614_at) / RFU ARHGAP8 /// PRR5-ARHGAP8 (11727945_x_at) / Fold change /veh ARHGAP8 /// PRR5-ARHGAP8 (11727945_x_at) / RFU KRTAP5-7 /// NADSYN1 (11734609_at) / Fold change /veh KRTAP5-7 /// NADSYN1 (11734609_at) / RFU RASL12 (11751679_a_at) / Fold change /veh RASL12 (11751679_a_at) / RFU CDKN2B (11736163_a_at) / Fold change /veh CDKN2B (11736163_a_at) / RFU PRF1 (11729649_at) / Fold change /veh PRF1 (11729649_at) / RFU, ZNF638 /// ZNF638-IT1 / Fold change vs veh, ZNF638 /// ZNF638-IT1 / RFU, PANK3 / Fold change vs veh, PANK3 / RFU, SH3YL1 / Fold change vs veh, SH3YL1 / RFU, ZEB2 / Fold change vs veh, ZEB2 / RFU, NRIP1 / Fold change vs veh, NRIP1 / RFU, PTTG1IP / Fold change vs veh, PTTG1IP / RFU, CAPN2 / Fold change vs veh, CAPN2 / RFU, MED14 / Fold change vs veh, MED14 / RFU, SNORA58 / Fold change vs veh, SNORA58 / RFU, C1orf63 / Fold change vs veh, C1orf63 / RFU, LRRFIP1 / Fold change vs veh, LRRFIP1 / RFU, NDUFAF7 / Fold change vs veh, NDUFAF7 / RFU, SLC12A2 / Fold change vs veh, SLC12A2 / RFU, IBTK / Fold change vs veh, IBTK / RFU, ESF1 / Fold change vs veh, ESF1 / Fold change vs veh, TMEM50B / RFU, TAOK1 / Fold change vs veh, TAOK1 / RFU, ACBD3 / Fold change vs veh, ACBD3 / RFU, TMA16 / Fold change vs veh, TMA16 / RFU, RWDD3 / Fold change vs veh, RWDD3 / RFU, BCAT1 / Fold change vs veh, BCAT1 / RFU, EDEM3 / Fold change vs veh, EDEM3 / RFU, TMEM33 / Fold change vs veh, TMEM33 / RFU, WDR75 / Fold change vs veh, WDR75 / RFU, AHCTF1 / Fold change vs veh, AHCTF1 / RFU, TFRC / Fold change vs veh, TFRC / RFU, ZDHHC17 / Fold change vs veh, ZDHHC17 / RFU, NOM1 / Fold change vs veh, NOM1 / RFU, ARL8B / Fold change vs veh, ARL8B / RFU, ZBTB11 / Fold change vs veh, ZBTB11 / RFU, TAMM41 / Fold change vs veh, TAMM41 / RFU, KIAA1704 /// LOC100996395 / Fold change vs veh, KIAA1704 /// LOC100996395 / RFU, ING1 / Fold change vs veh, ING1 / RFU, TRMT61B / Fold change vs veh, TRMT61B / RFU, FUBP3 / Fold change vs veh, FUBP3 / RFU, TP53 / Fold change vs veh, TP53 / RFU, TNKS2 / Fold change vs veh, TNKS2 / RFU, ZFP14 / Fold change vs veh, ZFP14 / RFU, ACTR2 / Fold change vs veh, ACTR2 / RFU, PPP3R1 / Fold change vs veh, PPP3R1 / RFU, PIK3R1 / Fold change vs veh, PIK3R1 / RFU, HNRNPA1 / Fold change vs veh, HNRNPA1 / RFU, RNF170 / Fold change vs veh, RNF170 / RFU, ZNF28 / Fold change vs veh, ZNF28 / RFU, RNGTT / Fold change vs veh, RNGTT / RFU, OGT / Fold change vs veh, OGT / RFU, BRD1 / Fold change vs veh, BRD1 / RFU, MARS / Fold change vs veh, MARS / RFU, ZNF655 / Fold change vs veh, ZNF655 / RFU, FAHD1 / Fold change vs veh, FAHD1 / RFU, BDP1 / Fold change vs veh, BDP1 / RFU, LRRCC1 / Fold change vs veh, LRRCC1 / RFU, ARID1A / Fold change vs veh, ARID1A / RFU, ZNF146 / Fold change vs veh, ZNF146 / RFU, ZNF330 / Fold change vs veh, ZNF330 / RFU, GPN3 / Fold change vs veh, GPN3 / RFU, C9orf123 / Fold change vs veh, C9orf123 / RFU, N4BP2L2 / Fold change vs veh, N4BP2L2 / RFU, ARFIP1 / Fold change vs veh, ARFIP1 / RFU, FAM179B / Fold change vs veh, FAM179B / RFU, BCL10 / Fold change vs veh, BCL10 / RFU, UHRF1BP1L / Fold change vs veh, UHRF1BP1L / RFU, BET1 / Fold change vs veh, BET1 / RFU, CNOT2 / Fold change vs veh, CNOT2 / RFU, ZNF268 / Fold change vs veh, ZNF268 / Fold change vs veh, ZNF507 / RFU, DGCR2 / Fold change vs veh, DGCR2 / RFU, WDSUB1 / Fold change vs veh, WDSUB1 / Fold change vs veh, HSP90B1 /// MIR3652 / RFU, ADSS / Fold change vs veh, ADSS / RFU, GK / Fold change vs veh, GK / RFU, ZNF148 / Fold change vs veh, ZNF148 / RFU, TAF9 / Fold change vs veh, TAF9 / RFU, SLC1A5 / Fold change vs veh, SLC1A5 / RFU, SLMO2 / Fold change vs veh, SLMO2 / RFU, ABCC4 / Fold change vs veh, ABCC4 / RFU, LOC101060439 /// RAP1B / Fold change vs veh, LOC101060439 /// RAP1B / RFU, RFX7 / Fold change vs veh, RFX7 / RFU, GTPBP10 / Fold change vs veh, GTPBP10 / RFU, CNEP1R1 / Fold change vs veh, CNEP1R1 / RFU, BIVM-ERCC5 /// ERCC5 / Fold change vs veh, BIVM-ERCC5 /// ERCC5 / RFU, ILF3 / Fold change vs veh, ILF3 / RFU 11762660_at / Fold change /veh 11762660_at / RFU VCAN (11757783_s_at) / Fold change /veh VCAN (11757783_s_at) / RFU DDX43 (11728927_at) / Fold change /veh DDX43 (11728927_at) / RFU KRT8 (11758188_x_at) / Fold change /veh KRT8 (11758188_x_at) / RFU NKD1 (11759106_at) / Fold change /veh NKD1 (11759106_at) / RFU SRD5A1 (11742802_a_at) / Fold change /veh SRD5A1 (11742802_a_at) / RFU TPSAB1 /// TPSB2 (11721975_s_at) / Fold change /veh TPSAB1 /// TPSB2 (11721975_s_at) / RFU GSTM3 (11746129_a_at) / Fold change /veh GSTM3 (11746129_a_at) / RFU IL23R (11737362_x_at) / Fold change /veh IL23R (11737362_x_at) / RFU TMEM51 (11727254_a_at) / Fold change /veh TMEM51 (11727254_a_at) / RFU PIWIL2 (11732686_x_at) / Fold change /veh PIWIL2 (11732686_x_at) / RFU ORM1 (11744905_x_at) / Fold change /veh ORM1 (11744905_x_at) / RFU CCDC152 (11743942_at) / Fold change /veh CCDC152 (11743942_at) / RFU ECM1 (11717891_a_at) / Fold change /veh ECM1 (11717891_a_at) / RFU IL23R (11748794_a_at) / Fold change /veh IL23R (11748794_a_at) / RFU TNFAIP8L3 (11732012_x_at) / Fold change /veh TNFAIP8L3 (11732012_x_at) / RFU MBOAT4 (11741988_at) / Fold change /veh MBOAT4 (11741988_at) / RFU 11764193_at / Fold change /veh 11764193_at / RFU TMEM53 (11763286_at) / Fold change /veh TMEM53 (11763286_at) / RFU MAGEB2 (11727129_at) / Fold change /veh MAGEB2 (11727129_at) / RFU TMEM200A (11744735_a_at) / Fold change /veh TMEM200A (11744735_a_at) / RFU CCDC152 (11751479_a_at) / Fold change /veh CCDC152 (11751479_a_at) / RFU FAM211A (11726209_a_at) / Fold change /veh FAM211A (11726209_a_at) / RFU RGS16 (11746705_a_at) / Fold change /veh RGS16 (11746705_a_at) / RFU VCAN (11755009_s_at) / Fold change /veh VCAN (11755009_s_at) / RFU RHOB (11743442_s_at) / Fold change /veh RHOB (11743442_s_at) / RFU RGS16 (11720943_a_at) / Fold change /veh RGS16 (11720943_a_at) / RFU RGS16 (11720944_at) / Fold change /veh RGS16 (11720944_at) / RFU, VPS4B / Fold change vs veh, VPS4B / RFU, CREB1 / Fold change vs veh, CREB1 / RFU, DNAJC13 / Fold change vs veh, DNAJC13 / RFU, GNAQ / Fold change vs veh, GNAQ / RFU, CDK5R1 / Fold change vs veh, CDK5R1 / RFU, ZRANB3 / Fold change vs veh, ZRANB3 / RFU, CUL4A / Fold change vs veh, CUL4A / RFU, CCNY / Fold change vs veh, CCNY / RFU, UFL1 / Fold change vs veh, UFL1 / RFU, COG3 / Fold change vs veh, COG3 / RFU, DIAPH2 / Fold change vs veh, DIAPH2 / RFU, SKA2 / Fold change vs veh, SKA2 / RFU, AFF3 / Fold change vs veh, AFF3 / RFU, LMF1 / Fold change vs veh, LMF1 / RFU, IPO11 / Fold change vs veh, IPO11 / RFU, DFFB / Fold change vs veh, DFFB / RFU, FOXP1 / Fold change vs veh, FOXP1 / RFU, CARD8 / Fold change vs veh, CARD8 / RFU, STRN3 / Fold change vs veh, STRN3 / RFU, ADK / Fold change vs veh, ADK / RFU, RASSF2 / Fold change vs veh, RASSF2 / RFU, WIPF1 / Fold change vs veh, WIPF1 / RFU, LARP1B / Fold change vs veh, LARP1B / RFU, RASA1 / Fold change vs veh, RASA1 / RFU, RB1 / Fold change vs veh, RB1 / RFU, PPFIA1 / Fold change vs veh, PPFIA1 / RFU, MAT2A / Fold change vs veh, MAT2A / RFU, CCT5 / Fold change vs veh, CCT5 / RFU, WDR92 / Fold change vs veh, WDR92 / RFU, CUX1 / Fold change vs veh, CUX1 / RFU, TTC7A / Fold change vs veh, TTC7A / RFU, TMEM135 / Fold change vs veh, TMEM135 / RFU, DEPTOR / Fold change vs veh, DEPTOR / RFU, CPM / Fold change vs veh, CPM / RFU, DNAJB6 / Fold change vs veh, DNAJB6 / RFU, CACNA2D3 / Fold change vs veh, CACNA2D3 / RFU, DTX4 / Fold change vs veh, DTX4 / RFU, TFCP2 / Fold change vs veh, TFCP2 / RFU, GMCL1 /// GMCL1P1 / Fold change vs veh, GMCL1 /// GMCL1P1 / RFU, AEBP2 / Fold change vs veh, AEBP2 / RFU, SNHG1 /// SNORD22 /// SNORD25 /// SNORD26 /// SNORD27 /// SNORD28 /// SNORD29 /// SNORD31 / Fold change vs veh, SNHG1 /// SNORD22 /// SNORD25 /// SNORD26 /// SNORD27 /// SNORD28 /// SNORD29 /// SNORD31 / Fold change (Aza/veh), C12orf56 (ProbeSet 11735607_a_at) / Fold change (ACY-1035/veh), C12orf56 (ProbeSet 11735607_a_at) / Fold change (Aza/veh), FGFR1OP (ProbeSet 11751329_s_at) / Fold change (ACY-1035/veh), FGFR1OP (ProbeSet 11751329_s_at) / Fold change (Aza/veh), VPS36 (ProbeSet 11739960_a_at) / Fold change (ACY-1035/veh), VPS36 (ProbeSet 11739960_a_at) / RFU SYPL1 (11715823_x_at) / Fold change /veh SYPL1 (11715823_x_at) / RFU IGFBP7 (11715501_s_at) / Fold change /veh IGFBP7 (11715501_s_at) / RFU REEP3 (11722064_at) / Fold change /veh REEP3 (11722064_at) / RFU IGLL1 (11728026_x_at) / Fold change /veh IGLL1 (11728026_x_at): dose or concentration left out as unconfirmed
Conditions: ProbeSet 11753234_a_at; LIST B

Nc1ccc(-c2cccs2)cc1NC(=O)c1ccc2c(c1)cc(C1CC1)n2CCN1CCOCC1 [ACY-1035]
RFU, TAMM41: 55.35 RFU
